Reference: PubChem BioAssay AID1259407 (Chemical Carcinogenesis Research Information System (CCRIS), 2018)
The source made the active and inactive calls. The rule behind the calls is not given here.

System: CCRIS mutagenicity, Ames/micronucleus/aberration tests
Assay: CCRIS mutagenicity studies

Measured: mutagenic call

Nc1ccc(N)cc1
active: End Point: IN VITRO CHROMOSOMAL ABERRATIONS, Test System: CHL CELLS, Metabolic Activation: NONE active; positive (structural changes) | End Point: IN VITRO CHROMOSOMAL ABERRATIONS, Test System: CHL CELLS, Metabolic Activation: RAT, LIVER, S-9, SODIUM PHENOBARBITAL AND 5,6-BENZOFLAVONE active; positive (structural changes) | End Point: IN VITRO MICRONUCLEUS, Test System: CHL/IU CELLS, Metabolic Activation: RAT, LIVER, S-9, PHENOBARBITAL AND 5,6-BENZOFLAVONE active; positive | End Point: In vitro micronucleus, Test System: Human lymphocytes, Metabolic Activation: Rat, Liver, S-9, Aroclor 1254 active; positive | Test System: AMES SALMONELLA TYPHIMURIUM, Strain/Indicator: TA98(NR), Metabolic Activation: RAT, LIVER, S-9, AROCLOR 1254, Method: PREINCUBATION active; positive | Test System: AMES SALMONELLA TYPHIMURIUM, Strain/Indicator: TA98, Metabolic Activation: HAMSTER, LIVER, S-9, AROCLOR 1254 (30%), Method: PREINCUBATION active; positive | Test System: AMES SALMONELLA TYPHIMURIUM, Strain/Indicator: TA98, Metabolic Activation: RAT LIVER S-9, PHENOBARBITAL AND BETA-NAPHTHOFLAVONE, Method: PREINCUBATION active; positive | Test System: AMES SALMONELLA TYPHIMURIUM, Strain/Indicator: TA98, Metabolic Activation: RAT, LIVER, S-9, AROCLOR 1254 active; positive | Test System: AMES SALMONELLA TYPHIMURIUM, Strain/Indicator: TA98, Metabolic Activation: RAT, LIVER, S-9, AROCLOR 1254 (30%), Method: PREINCUBATION active; positive | Test System: AMES SALMONELLA TYPHIMURIUM, Strain/Indicator: TA100(NR), Metabolic Activation: NONE, Method: PREINCUBATION active; positive | Test System: AMES SALMONELLA TYPHIMURIUM, Strain/Indicator: TA1538, Metabolic Activation: RAT, LIVER, S-9, PHENOBARBITAL, Method: STANDARD PLATE active; positive | Test System: Ames Salmonella typhimurium, Strain/Indicator: TA98, Metabolic Activation: Rat, Liver, S-9, Aroclor 1254 (10%), Method: Preincubation active; positive | Test System: Ames Salmonella typhimurium, Strain/Indicator: TA98, Metabolic Activation: Rat, Liver, S-9, Aroclor 1254 (10%), Method: Standard plate active; positive | Test System: MOUSE LYMPHOMA, Strain/Indicator: L5178Y (TK+/TK-), Metabolic Activation: NONE, Method: SUSPENSION/PLATE active; positive | Test System: MOUSE LYMPHOMA, Strain/Indicator: L5178Y (TK+/TK-), Metabolic Activation: RAT, LIVER, S-9, AROCLOR 1254, Method: SUSPENSION/PLATE active; positive
inactive: Test System: AMES SALMONELLA TYPHIMURIUM, Strain/Indicator: TA98(NR), Metabolic Activation: NONE, Method: PREINCUBATION inactive; negative | Test System: AMES SALMONELLA TYPHIMURIUM, Strain/Indicator: TA98, Metabolic Activation: NONE inactive; negative | Test System: AMES SALMONELLA TYPHIMURIUM, Strain/Indicator: TA98, Metabolic Activation: NONE, Method: PREINCUBATION inactive; negative | Test System: AMES SALMONELLA TYPHIMURIUM, Strain/Indicator: TA98, Metabolic Activation: NONE, Method: STANDARD PLATE inactive; negative | Test System: AMES SALMONELLA TYPHIMURIUM, Strain/Indicator: TA98, Metabolic Activation: PEA APICAL BUD S-9, Method: PREINCUBATION inactive; negative | Test System: AMES SALMONELLA TYPHIMURIUM, Strain/Indicator: TA98, Metabolic Activation: PEA APICAL BUD S-9, Method: STANDARD PLATE inactive; negative | Test System: AMES SALMONELLA TYPHIMURIUM, Strain/Indicator: TA98, Metabolic Activation: PLANT (PERSEA AMERICANA) S-117, Method: STANDARD PLATE inactive; negative | Test System: AMES SALMONELLA TYPHIMURIUM, Strain/Indicator: TA98, Metabolic Activation: PLANT (ZEA MAYS) S-9, Method: STANDARD PLATE inactive; negative | Test System: AMES SALMONELLA TYPHIMURIUM, Strain/Indicator: TA100(NR), Metabolic Activation: RAT, LIVER, S-9, AROCLOR 1254, Method: PREINCUBATION inactive; negative | Test System: AMES SALMONELLA TYPHIMURIUM, Strain/Indicator: TA100, Metabolic Activation: HAMSTER, LIVER, S-9, AROCLOR 1254 (30%), Method: PREINCUBATION inactive; negative | Test System: AMES SALMONELLA TYPHIMURIUM, Strain/Indicator: TA100, Metabolic Activation: NONE, Method: PREINCUBATION inactive; negative | Test System: AMES SALMONELLA TYPHIMURIUM, Strain/Indicator: TA100, Metabolic Activation: NONE, Method: STANDARD PLATE inactive; negative | Test System: AMES SALMONELLA TYPHIMURIUM, Strain/Indicator: TA100, Metabolic Activation: PEA APICAL BUD S-9, Method: PREINCUBATION inactive; negative | Test System: AMES SALMONELLA TYPHIMURIUM, Strain/Indicator: TA100, Metabolic Activation: PEA APICAL BUD S-9, Method: STANDARD PLATE inactive; negative | Test System: AMES SALMONELLA TYPHIMURIUM, Strain/Indicator: TA100, Metabolic Activation: PLANT (PERSEA AMERICANA) S-117, Method: STANDARD PLATE inactive; negative | Test System: AMES SALMONELLA TYPHIMURIUM, Strain/Indicator: TA100, Metabolic Activation: PLANT (ZEA MAYS) S-9, Method: STANDARD PLATE inactive; negative | Test System: AMES SALMONELLA TYPHIMURIUM, Strain/Indicator: TA100, Metabolic Activation: RAT LIVER S-9, PHENOBARBITAL AND BETA-NAPHTHOFLAVONE, Method: PREINCUBATION inactive; negative | Test System: AMES SALMONELLA TYPHIMURIUM, Strain/Indicator: TA100, Metabolic Activation: RAT, LIVER, S-9, AROCLOR 1254 (30%), Method: PREINCUBATION inactive; negative | Test System: AMES SALMONELLA TYPHIMURIUM, Strain/Indicator: TA100, Metabolic Activation: RAT, LIVER, S-9, AROCLOR 1254, Method: PREINCUBATION inactive; negative | Test System: AMES SALMONELLA TYPHIMURIUM, Strain/Indicator: TA100, Metabolic Activation: RAT, LIVER, S-9, AROCLOR 1254, Method: STANDARD PLATE inactive; negative | Test System: AMES SALMONELLA TYPHIMURIUM, Strain/Indicator: TA102, Metabolic Activation: NONE, Method: STANDARD PLATE inactive; negative | Test System: AMES SALMONELLA TYPHIMURIUM, Strain/Indicator: TA1535, Metabolic Activation: NONE, Method: PREINCUBATION inactive; negative | Test System: AMES SALMONELLA TYPHIMURIUM, Strain/Indicator: TA1535, Metabolic Activation: RAT LIVER S-9, PHENOBARBITAL AND BETA-NAPHTHOFLAVONE, Method: PREINCUBATION inactive; negative | Test System: AMES SALMONELLA TYPHIMURIUM, Strain/Indicator: TA1537, Metabolic Activation: NONE, Method: PREINCUBATION inactive; negative | Test System: AMES SALMONELLA TYPHIMURIUM, Strain/Indicator: TA1537, Metabolic Activation: RAT LIVER S-9, PHENOBARBITAL AND BETA-NAPHTHOFLAVONE, Method: PREINCUBATION inactive; negative | Test System: AMES SALMONELLA TYPHIMURIUM, Strain/Indicator: TA2638, Metabolic Activation: NONE, Method: STANDARD PLATE inactive; negative | Test System: AMES SALMONELLA TYPHIMURIUM, Strain/Indicator: YG1024, Metabolic Activation: PLANT (PERSEA AMERICANA) S-117, Method: STANDARD PLATE inactive; negative | Test System: AMES SALMONELLA TYPHIMURIUM, Strain/Indicator: YG1024, Metabolic Activation: PLANT (ZEA MAYS) S-9, Method: STANDARD PLATE inactive; negative | Test System: AMES SALMONELLA TYPHIMURIUM, Strain/Indicator: YG1029, Metabolic Activation: PLANT (PERSEA AMERICANA) S-117, Method: STANDARD PLATE inactive; negative | Test System: AMES SALMONELLA TYPHIMURIUM, Strain/Indicator: YG1029, Metabolic Activation: PLANT (ZEA MAYS) S-9, Method: STANDARD PLATE inactive; negative | Test System: Ames Salmonella typhimurium, Strain/Indicator: TA98, Metabolic Activation: None, Method: Standard plate inactive; negative | Test System: Ames Salmonella typhimurium, Strain/Indicator: TA100, Metabolic Activation: None, Method: Preincubation inactive; negative | Test System: Ames Salmonella typhimurium, Strain/Indicator: TA100, Metabolic Activation: None, Method: Standard plate inactive; negative | Test System: Ames Salmonella typhimurium, Strain/Indicator: TA100, Metabolic Activation: Rat, Liver, S-9, Aroclor 1254 (10%), Method: Preincubation inactive; negative | Test System: Ames Salmonella typhimurium, Strain/Indicator: TA100, Metabolic Activation: Rat, Liver, S-9, Aroclor 1254 (10%), Method: Standard plate inactive; negative | Test System: Ames Salmonella typhimurium, Strain/Indicator: TA102, Metabolic Activation: None, Method: Preincubation inactive; negative | Test System: Ames Salmonella typhimurium, Strain/Indicator: TA102, Metabolic Activation: None, Method: Standard plate inactive; negative | Test System: Ames Salmonella typhimurium, Strain/Indicator: TA102, Metabolic Activation: Rat, Liver, S9, Aroclor 1254, Method: Preincubation inactive; negative | Test System: Ames Salmonella typhimurium, Strain/Indicator: TA102, Metabolic Activation: Rat, Liver, S-9, Aroclor 1254 (10%), Method: Preincubation inactive; negative | Test System: Ames Salmonella typhimurium, Strain/Indicator: TA102, Metabolic Activation: Rat, Liver, S-9, Aroclor 1254 (10%), Method: Standard plate inactive; negative | Test System: Ames Salmonella typhimurium, Strain/Indicator: TA104, Metabolic Activation: None, Method: Preincubation inactive; negative | Test System: Ames Salmonella typhimurium, Strain/Indicator: TA104, Metabolic Activation: Rat, Liver, S9, Aroclor 1254, Method: Preincubation inactive; negative | Test System: Ames Salmonella typhimurium, Strain/Indicator: TA1535, Metabolic Activation: None, Method: Preincubation inactive; negative | Test System: Ames Salmonella typhimurium, Strain/Indicator: TA1535, Metabolic Activation: None, Method: Standard plate inactive; negative | Test System: Ames Salmonella typhimurium, Strain/Indicator: TA1535, Metabolic Activation: Rat, Liver, S-9, Aroclor 1254 (10%), Method: Preincubation inactive; negative | Test System: Ames Salmonella typhimurium, Strain/Indicator: TA1535, Metabolic Activation: Rat, Liver, S-9, Aroclor 1254 (10%), Method: Standard plate inactive; negative | Test System: Ames Salmonella typhimurium, Strain/Indicator: TA1537, Metabolic Activation: None, Method: Preincubation inactive; negative | Test System: Ames Salmonella typhimurium, Strain/Indicator: TA 1537, Metabolic Activation: None, Method: Standard plate inactive; negative | Test System: Ames Salmonella typhimurium, Strain/Indicator: TA1537, Metabolic Activation: Rat, Liver, S-9, Aroclor 1254 (10%), Method: Preincubation inactive; negative | Test System: Ames Salmonella typhimurium, Strain/Indicator: TA1537, Metabolic Activation: Rat, Liver, S-9, Aroclor 1254 (10%), Method: Standard plate inactive; negative | Test System: CHINESE HAMSTER OVARY, Strain/Indicator: CHO-K1-BH4 (HGPRT)/6-THIOGUANINE, Metabolic Activation: NONE inactive; negative | Test System: CHINESE HAMSTER OVARY, Strain/Indicator: CHO-K1-BH4 (HGPRT)/6-THIOGUANINE, Metabolic Activation: S-9 inactive; negative | Test System: E. COLI, Strain/Indicator: WP2 (PKM101), Metabolic Activation: NONE, Method: STANDARD PLATE inactive; negative | Test System: E. COLI, Strain/Indicator: WP2 UVRA (PKM101), Metabolic Activation: NONE, Method: STANDARD PLATE inactive; negative | Test System: E.COLI, Strain/Indicator: WP2UVRA, Metabolic Activation: RAT LIVER S-9, PHENOBARBITAL AND BETA-NAPHTHOFLAVONE, Method: PREINCUBATION inactive; negative | Test System: Mouse lymphoma, Strain/Indicator: L5178Y (TK+/TK-), Metabolic Activation: None, Method: Suspension/plate inactive; negative | Test System: Mouse lymphoma, Strain/Indicator: L5178Y (TK+/TK-), Metabolic Activation: Rat, Liver, S-9, Aroclor 1254, Method: Suspension/plate inactive; negative
